Experimental data reported in patent publication US20070218080A1, “Peptide antigen of human papillomavirus type 16 and application thereof” (Mackay Memorial Hospital, priority 2006, published 2007).

Assays:
[1] = molecular target: T1, HLA-A2.1 antigens on T2 cell surface (Homo sapiens, UniProt P04439, D140Y/D185E/D98H/E176V/E277Q/G131W/G231S/I119V/I121R/I166T/I218V/L300P/L318F/N151K/N90K/P208A/P217A/Q86G/Q94H/R138H/R169H/T345S); test: T2 cell binding assay; format: cell-based; details: T2 cells, 10 μg/ml synthetic peptide, 20 hours at 26° C., flow cytometry
T1 construct: endogenous in cells; host or cells: T2 cells
Source text: The binding test of the peptide in the invention was subjected to a T2 cell binding assay to measure the binding affinity for HLA-A2.1 antigens on T2 cell surface. T2 cells lack genes coding for transporter proteins for antigenic peptides (TAP1/TAP2) and therefore is not able to translocate peptide antigens processed by cells into the endoplasmic reticulum (ER). […] Therefore, the synthetic peptide antigens were used directly, not through cell processing, for the binding test with HLA-A2.1 antigens on T2 cell surface.
T2 cells that had been incubated overnight at 26° C. in RPMI 1640 containing 5% fetal bovine serum (FBS) were mixed with 10 μg/ml of pre-prepared synthetic peptide for 20 hours at 26° C. in RPMI containing 5% FCS and 5 μg/ml human β 2-microglobulin (β 2 m). The cells were then washed twice, incubated at 37° C. for 2 hours. […] Then the cells were incubated with fluorescein isothiocyanate (FITC) labeled anti-human HLA-A2.1 antibodies (BD Biosciences Pharmingen) to stain HLA-A2.1. The stains were fixed with 1% paraformaldehyde, and analyzed by flow cytometry. Because the binding of synthetic peptides and HLA-A2.1 antigens would be presented on the surface of lymphocytes, which could be recognized and bound by anti-human HLA-A2.1 antibodies. Therefore the fluorescein indicated the binding of synthetic peptides.

[2] = system: CD8+IFN-γ+ double-positive cells; test: In vivo induction of CD8 T cells proliferation; design: species or system HLA-A2.1 transgenic C57BL/6 mice
Procedure: 4-6 week-old HLA-A2.1 transgenic C57BL/6 mice were immunized with 100 μl containing 100 μg of SEQ ID NO: 1 peptide in adjuvant at 0.2 μM of CpG phosphorethioate oligodeoxynucleotide 1826 (CpG ODN 1826) via intramuscular injection three times at one week intervals. Five days after the third immunization, the splenocytes of mice were recovered and the numbers of CD8^+IFN-γ^+ double-positive cells were measured using flow cytometry analyses.

[3] = system: β-lymphocyte (HMy2.CIR, ATCC No.: CRL-1993) target cells; test: Cytotoxicity assay (CTL activity); format: cell-based; details: splenocytes of immunized mice as effector cells
Procedure: The β-lymphocyte (HMy2.CIR, ATCC No.: CRL-1993) target cells were labeled with PKH-26 and carboxyfluorescein diacetate succinimidyl ester (CFSE). 4-6 week-old HLA-A2.1 transgenic C57BL/6 mice were immunized as described in Example 2 with 100 μl of the same dosage of SEQ ID NO: 1 peptide in adjuvant of CpG oligodeoxynucleotide via intramuscular injection three times at one week intervals. Five days after the third immunization, the splenocytes of mice were recovered as effector cells and incubated with the target cells […].
Target cells labeled with two dyes were cultivated in the absence of effector cells as the control group. When membrane damage occurs, the dye is almost instantaneously lost and the cells are no longer able to take up the charged dye.

Row | Substance | fluorescence intensity (FITC anti-human HLA-A2.1 staining) [1] | number of CD8+IFN-γ+ double-positive cells ([2]; splenocytes five days after third immunization, 100 μg peptide with CpG ODN 1826, intramuscular, three times at one week intervals) [%] | increase of CD8+IFN-γ+ double-positive cells in comparison to the irrelevant stimulator ([2]; splenocytes of immunized mice vs control group) | cytolytic activity ([3]; ET ratio 10) [%] | cytolytic activity ([3]; ET ratio 150) [%]
1 | SEQ ID NO: 1: synthetic 9-amino-acid peptide, 63th to 71th amino acid sequence of HPV-16 E5 protein (YIIFVYIPL; Human papillomavirus type 16) | around 22% | 0.32 | about 4 fold | 18 | 33
2 | positive control: HLA-A2.1 binding peptide obtained from tyrosinase peptide 369-377, positive control [reference compound] | around 35% |  |  |  | 
